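Values below derive from 48-hour exposures of cells grown in 96-well plates, with endpoints linearly interpolated between the two concentrations bracketing the appropriate inhibition level. TGI: concentration producing complete growth inhibition.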
Assays:
Assay in all cases: NCI anticancer screen, dose series, 48 h
T-47D breast = system: T-47D breast
IGROV1 ovarian = system: IGROV1 ovarian
CAKI-1 renal = system: CAKI-1 renal
A498 renal = system: A498 renal
NCI-H460 lung = system: NCI-H460 lung
MDA-MB-231 breast = system: MDA-MB-231 breast
HOP-92 NSCLC = system: HOP-92 NSCLC
MDA-N = system: MDA-N
MCF7 breast = system: MCF7 breast
SR leukemia = system: SR leukemia
DU-145 prostate = system: DU-145 prostate
UO-31 renal = system: UO-31 renal
NCI-H226 lung = system: NCI-H226 lung
HL-60(TB) leukemia = system: HL-60(TB) leukemia
U251 CNS = system: U251 CNS
SNB-19 CNS = system: SNB-19 CNS
TK-10 renal = system: TK-10 renal
HCC-2998 colon = system: HCC-2998 colon
UACC-257 melanoma = system: UACC-257 melanoma
LOX IMVI melanoma = system: LOX IMVI melanoma
NCI-H23 lung = system: NCI-H23 lung
MDA-MB-435 = system: MDA-MB-435
PC-3 prostate = system: PC-3 prostate
HS 578T breast = system: HS 578T breast
SF-539 CNS = system: SF-539 CNS
HT29 colon = system: HT29 colon
BT-549 breast = system: BT-549 breast
EKVX NSCLC = system: EKVX NSCLC
SK-OV-3 ovarian = system: SK-OV-3 ovarian
SN12C renal = system: SN12C renal
MALME-3M melanoma = system: MALME-3M melanoma
COLO 205 colon = system: COLO 205 colon
HCT-15 colon = system: HCT-15 colon
NCI-H522 lung = system: NCI-H522 lung
CCRF-CEM leukemia = system: CCRF-CEM leukemia
SW-620 colon = system: SW-620 colon
OVCAR-5 ovarian = system: OVCAR-5 ovarian
RPMI-8226 leukemia = system: RPMI-8226 leukemia
SNB-75 CNS = system: SNB-75 CNS
UACC-62 melanoma = system: UACC-62 melanoma
HOP-62 NSCLC = system: HOP-62 NSCLC
ACHN renal = system: ACHN renal
M14 melanoma = system: M14 melanoma
SK-MEL-28 melanoma = system: SK-MEL-28 melanoma
A549 NSCLC = system: A549 NSCLC
OVCAR-8 ovarian = system: OVCAR-8 ovarian
SF-295 CNS = system: SF-295 CNS
MOLT-4 leukemia = system: MOLT-4 leukemia
K-562 leukemia = system: K-562 leukemia
NCI/ADR-RES ovarian = system: NCI/ADR-RES ovarian
786-0 renal = system: 786-0 renal
HCT-116 colon = system: HCT-116 colon
SK-MEL-5 melanoma = system: SK-MEL-5 melanoma
OVCAR-4 ovarian = system: OVCAR-4 ovarian
KM12 colon = system: KM12 colon
SK-MEL-2 melanoma = system: SK-MEL-2 melanoma
OVCAR-3 ovarian = system: OVCAR-3 ovarian
RXF 393 renal = system: RXF 393 renal
SF-268 CNS = system: SF-268 CNS

## O=S1OC[C@H](CCCl)O1 (stereo not given in full)
T-47D breast
  TGI: > 100 µM
IGROV1 ovarian
  TGI: > 100 µM
CAKI-1 renal
  TGI: > 100 µM
A498 renal
  TGI: > 100 µM
NCI-H460 lung
  TGI: > 100 µM
MDA-MB-231 breast
  TGI: > 100 µM
HOP-92 NSCLC
  TGI: > 100 µM
MDA-N
  TGI: > 100 µM
MCF7 breast
  TGI: > 100 µM
SR leukemia
  TGI: > 100 µM
DU-145 prostate
  TGI: > 100 µM
UO-31 renal
  TGI: > 100 µM
NCI-H226 lung
  TGI: > 100 µM
HL-60(TB) leukemia
  TGI: > 100 µM
U251 CNS
  TGI: > 100 µM
SNB-19 CNS
  TGI: > 100 µM
TK-10 renal
  TGI: > 100 µM
HCC-2998 colon
  TGI: > 100 µM
UACC-257 melanoma
  TGI: > 100 µM
LOX IMVI melanoma
  TGI: > 100 µM
NCI-H23 lung
  TGI: > 100 µM
MDA-MB-435
  TGI: > 100 µM
PC-3 prostate
  TGI: > 100 µM
HS 578T breast
  TGI: > 100 µM
SF-539 CNS
  TGI: > 100 µM
HT29 colon
  TGI: > 100 µM
BT-549 breast
  TGI: > 100 µM
EKVX NSCLC
  TGI: > 100 µM
SK-OV-3 ovarian
  TGI: > 100 µM
SN12C renal
  TGI: > 100 µM
MALME-3M melanoma
  TGI: > 100 µM
COLO 205 colon
  TGI: > 100 µM
HCT-15 colon
  TGI: > 100 µM
NCI-H522 lung
  TGI: > 100 µM
CCRF-CEM leukemia
  TGI: > 100 µM
SW-620 colon
  TGI: > 100 µM
OVCAR-5 ovarian
  TGI: > 100 µM
RPMI-8226 leukemia
  TGI: > 100 µM
SNB-75 CNS
  TGI: > 100 µM
UACC-62 melanoma
  TGI: > 100 µM
HOP-62 NSCLC
  TGI: > 100 µM
ACHN renal
  TGI: > 100 µM
M14 melanoma
  TGI: > 100 µM
SK-MEL-28 melanoma
  TGI: > 100 µM
A549 NSCLC
  TGI: > 100 µM
OVCAR-8 ovarian
  TGI: > 100 µM
SF-295 CNS
  TGI: > 100 µM
MOLT-4 leukemia
  TGI: > 100 µM
K-562 leukemia
  TGI: > 100 µM
NCI/ADR-RES ovarian
  TGI: > 100 µM
786-0 renal
  TGI: > 100 µM
HCT-116 colon
  TGI: > 100 µM
SK-MEL-5 melanoma
  TGI: > 100 µM
OVCAR-4 ovarian
  TGI: > 100 µM
KM12 colon
  TGI: > 100 µM
SK-MEL-2 melanoma
  TGI: > 100 µM
OVCAR-3 ovarian
  TGI: > 100 µM

## Cc1c(C(=O)O)n2c(C)nnc2c2ccccc12
T-47D breast
  TGI: > 100 µM
IGROV1 ovarian
  TGI: > 100 µM
CAKI-1 renal
  TGI: > 100 µM
A498 renal
  TGI: > 100 µM
NCI-H460 lung
  TGI: > 100 µM
MDA-MB-231 breast
  TGI: > 100 µM
HOP-92 NSCLC
  TGI: > 100 µM
MDA-N
  TGI: > 100 µM
MCF7 breast
  TGI: > 100 µM
SR leukemia
  TGI: > 100 µM
DU-145 prostate
  TGI: > 100 µM
UO-31 renal
  TGI: > 100 µM
NCI-H226 lung
  TGI: > 100 µM
U251 CNS
  TGI: > 100 µM
TK-10 renal
  TGI: > 100 µM
HCC-2998 colon
  TGI: > 100 µM
UACC-257 melanoma
  TGI: > 100 µM
LOX IMVI melanoma
  TGI: > 100 µM
NCI-H23 lung
  TGI: > 100 µM
MDA-MB-435
  TGI: > 100 µM
PC-3 prostate
  TGI: > 100 µM
HS 578T breast
  TGI: > 100 µM
RXF 393 renal
  TGI: > 100 µM
SF-539 CNS
  TGI: > 100 µM
HT29 colon
  TGI: > 100 µM
BT-549 breast
  TGI: > 100 µM
EKVX NSCLC
  TGI: > 100 µM
SK-OV-3 ovarian
  TGI: > 100 µM
SN12C renal
  TGI: > 100 µM
COLO 205 colon
  TGI: > 100 µM
HCT-15 colon
  TGI: > 100 µM
NCI-H522 lung
  TGI: > 100 µM
CCRF-CEM leukemia
  TGI: > 100 µM
SW-620 colon
  TGI: > 100 µM
OVCAR-5 ovarian
  TGI: > 100 µM
SNB-75 CNS
  TGI: > 100 µM
UACC-62 melanoma
  TGI: > 100 µM
HOP-62 NSCLC
  TGI: > 100 µM
ACHN renal
  TGI: > 100 µM
M14 melanoma
  TGI: > 100 µM
SK-MEL-28 melanoma
  TGI: > 100 µM
A549 NSCLC
  TGI: > 100 µM
OVCAR-8 ovarian
  TGI: > 100 µM
SF-295 CNS
  TGI: > 100 µM
MOLT-4 leukemia
  TGI: > 100 µM
K-562 leukemia
  TGI: > 100 µM
NCI/ADR-RES ovarian
  TGI: > 100 µM
786-0 renal
  TGI: > 100 µM
HCT-116 colon
  TGI: > 100 µM
SK-MEL-5 melanoma
  TGI: > 100 µM
OVCAR-4 ovarian
  TGI: > 100 µM
KM12 colon
  TGI: > 100 µM
SF-268 CNS
  TGI: > 100 µM
SK-MEL-2 melanoma
  TGI: > 100 µM
OVCAR-3 ovarian
  TGI: > 100 µM

## CCN=c1nc2sc3c(c2c(NC(=S)NCC)s1)CCN(N1CCc2c(sc4nc(=NCC)sc(NC(=S)NCC)c24)C1)C3
T-47D breast
  TGI: > 100 µM
IGROV1 ovarian
  TGI: > 100 µM
CAKI-1 renal
  TGI: > 100 µM
A498 renal
  TGI: > 100 µM
NCI-H460 lung
  TGI: > 100 µM
MDA-MB-231 breast
  TGI: 82.6 µM
HOP-92 NSCLC
  TGI: 84.7 µM
MDA-N
  TGI: > 100 µM
MCF7 breast
  TGI: > 100 µM
SR leukemia
  TGI: > 100 µM
DU-145 prostate
  TGI: > 100 µM
UO-31 renal
  TGI: > 100 µM
NCI-H226 lung
  TGI: > 100 µM
HL-60(TB) leukemia
  TGI: > 100 µM
U251 CNS
  TGI: > 100 µM
SNB-19 CNS
  TGI: > 100 µM
TK-10 renal
  TGI: > 100 µM
HCC-2998 colon
  TGI: > 100 µM
UACC-257 melanoma
  TGI: > 100 µM
LOX IMVI melanoma
  TGI: > 100 µM
NCI-H23 lung
  TGI: > 100 µM
MDA-MB-435
  TGI: > 100 µM
PC-3 prostate
  TGI: > 100 µM
HS 578T breast
  TGI: > 100 µM
RXF 393 renal
  TGI: 53.2 µM
SF-539 CNS
  TGI: 39.5 µM
HT29 colon
  TGI: > 100 µM
BT-549 breast
  TGI: > 100 µM
EKVX NSCLC
  TGI: > 100 µM
SK-OV-3 ovarian
  TGI: > 100 µM
SN12C renal
  TGI: > 100 µM
MALME-3M melanoma
  TGI: > 100 µM
COLO 205 colon
  TGI: > 100 µM
HCT-15 colon
  TGI: > 100 µM
NCI-H522 lung
  TGI: > 100 µM
CCRF-CEM leukemia
  TGI: > 100 µM
SW-620 colon
  TGI: > 100 µM
OVCAR-5 ovarian
  TGI: > 100 µM
SNB-75 CNS
  TGI: > 100 µM
UACC-62 melanoma
  TGI: > 100 µM
HOP-62 NSCLC
  TGI: > 100 µM
ACHN renal
  TGI: > 100 µM
M14 melanoma
  TGI: > 100 µM
SK-MEL-28 melanoma
  TGI: > 100 µM
A549 NSCLC
  TGI: > 100 µM
OVCAR-8 ovarian
  TGI: > 100 µM
SF-295 CNS
  TGI: > 100 µM
MOLT-4 leukemia
  TGI: > 100 µM
K-562 leukemia
  TGI: > 100 µM
NCI/ADR-RES ovarian
  TGI: > 100 µM
786-0 renal
  TGI: > 100 µM
HCT-116 colon
  TGI: 52.3 µM
SK-MEL-5 melanoma
  TGI: > 100 µM
OVCAR-4 ovarian
  TGI: > 100 µM
KM12 colon
  TGI: > 100 µM
SF-268 CNS
  TGI: > 100 µM
SK-MEL-2 melanoma
  TGI: > 100 µM
OVCAR-3 ovarian
  TGI: > 100 µM
